Read-outs that look alike come from different tables or passages of the source.
Columns and labels:
CYP2C9 = CYP2C9 (Homo sapiens, UniProt P11712); conditions: for inhibition of activity against S-warfarin: rCYP2C9 microsomes, probe S-warfarin (Supplemental Table 2)
CYP2B6 [1] = biological target: T1, CYP2B6 (Homo sapiens, UniProt P20813); experiment: Inhibition of CYP2B6 probe; assay type: in vitro ADME; conditions: for IC50: probe bupropion; for Ki: probe bupropion (CYP2B6)
T1 sequence (P20813 1-491): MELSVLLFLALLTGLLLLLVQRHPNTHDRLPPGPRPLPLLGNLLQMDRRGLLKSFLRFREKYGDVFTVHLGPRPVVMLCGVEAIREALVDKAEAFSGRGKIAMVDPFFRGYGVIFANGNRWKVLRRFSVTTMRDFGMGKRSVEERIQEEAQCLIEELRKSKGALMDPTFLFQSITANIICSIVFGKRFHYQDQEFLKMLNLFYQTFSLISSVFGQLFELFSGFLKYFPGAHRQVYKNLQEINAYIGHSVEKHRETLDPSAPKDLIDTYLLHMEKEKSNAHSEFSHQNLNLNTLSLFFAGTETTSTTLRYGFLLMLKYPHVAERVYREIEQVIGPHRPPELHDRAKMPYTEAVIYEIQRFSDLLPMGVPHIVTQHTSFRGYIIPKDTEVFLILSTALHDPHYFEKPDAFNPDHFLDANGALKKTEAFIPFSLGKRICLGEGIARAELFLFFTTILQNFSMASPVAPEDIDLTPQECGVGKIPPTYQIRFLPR

CYP2B6 [2] = biological target: T1, CYP2B6; experiment: Inhibition of rCYP2B6 in microsomes from CYP450-overexpressing HEK293 cells; assay type: in vitro ADME; conditions: for IC50 / Ki: probe bupropion; for inhibition of activity against efavirenz: probe efavirenz (Supplemental Table 2)
[3] = Unbound fraction in incubation; assay type: in vitro ADME; conditions: human, human liver microsomes in buffer
CYP2D6 = CYP2D6 (Homo sapiens, UniProt P10635); conditions: rCYP2D6 microsomes; probe bufuralol (Supplemental Table 2)
Chain of CYP2D6 (P10635 whole entry): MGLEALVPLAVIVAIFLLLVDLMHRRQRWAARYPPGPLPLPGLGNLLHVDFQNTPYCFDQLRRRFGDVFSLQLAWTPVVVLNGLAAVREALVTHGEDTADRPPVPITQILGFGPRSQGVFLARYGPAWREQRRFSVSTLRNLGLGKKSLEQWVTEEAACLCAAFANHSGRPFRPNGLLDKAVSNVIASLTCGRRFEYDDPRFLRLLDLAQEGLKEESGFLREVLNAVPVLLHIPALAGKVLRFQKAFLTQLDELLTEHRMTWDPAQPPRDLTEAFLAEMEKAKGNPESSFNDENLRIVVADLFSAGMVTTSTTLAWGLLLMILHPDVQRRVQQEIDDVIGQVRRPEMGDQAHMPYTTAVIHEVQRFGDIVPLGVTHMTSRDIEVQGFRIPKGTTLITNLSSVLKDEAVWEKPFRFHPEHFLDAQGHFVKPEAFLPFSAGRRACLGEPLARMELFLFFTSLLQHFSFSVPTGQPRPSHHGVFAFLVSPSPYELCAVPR

CYP2B6 [4] = biological target: T1, CYP2B6; experiment: IC50 shift study; assay type: in vitro ADME
CYP2E1 [5] = biological target: T2, CYP2E1 (Homo sapiens, UniProt P05181); experiment: Inhibition of CYP2E1 probe; assay type: in vitro ADME; conditions: for IC50: probe chlorzoxazone; for Ki: probe chlorzoxazone (CYP2E1)
T2 sequence (P05181 whole entry): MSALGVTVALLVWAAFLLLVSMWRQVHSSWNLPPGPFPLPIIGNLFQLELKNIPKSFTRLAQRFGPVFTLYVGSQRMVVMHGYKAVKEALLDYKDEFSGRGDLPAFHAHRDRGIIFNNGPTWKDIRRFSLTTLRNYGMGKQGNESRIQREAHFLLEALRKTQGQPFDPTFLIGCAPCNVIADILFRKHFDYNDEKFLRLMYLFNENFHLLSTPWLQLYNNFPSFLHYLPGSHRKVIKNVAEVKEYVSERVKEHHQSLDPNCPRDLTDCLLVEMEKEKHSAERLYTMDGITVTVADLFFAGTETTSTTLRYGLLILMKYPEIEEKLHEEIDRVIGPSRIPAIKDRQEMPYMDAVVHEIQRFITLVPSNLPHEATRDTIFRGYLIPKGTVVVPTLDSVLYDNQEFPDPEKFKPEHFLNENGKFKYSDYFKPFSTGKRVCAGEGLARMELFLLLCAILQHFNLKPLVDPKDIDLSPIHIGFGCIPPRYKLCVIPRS

[6] = Unbound fraction in incubation; assay type: in vitro ADME; conditions: human, HEK293 cell microsomes in buffer
CYP2E1 [7] = biological target: T2, CYP2E1; experiment: IC50 shift study; assay type: in vitro ADME
CYP2E1 [8] = biological target: T2, CYP2E1; experiment: Inhibition of rCYP2E1 in microsomes from CYP450-overexpressing HEK293 cells; assay type: in vitro ADME; conditions: for decrease in activity: CYP2E1; for IC50 / Ki: probe chlorzoxazone
[9] = plasma, ref Manini et al., 2015, Cox et al., 2019, cited from earlier work
CYP1A2 [10] = biological target: T3, CYP1A2 (Homo sapiens, UniProt P05177); experiment: IC50 shift study; assay type: in vitro ADME
T3 sequence (P05177 1-516): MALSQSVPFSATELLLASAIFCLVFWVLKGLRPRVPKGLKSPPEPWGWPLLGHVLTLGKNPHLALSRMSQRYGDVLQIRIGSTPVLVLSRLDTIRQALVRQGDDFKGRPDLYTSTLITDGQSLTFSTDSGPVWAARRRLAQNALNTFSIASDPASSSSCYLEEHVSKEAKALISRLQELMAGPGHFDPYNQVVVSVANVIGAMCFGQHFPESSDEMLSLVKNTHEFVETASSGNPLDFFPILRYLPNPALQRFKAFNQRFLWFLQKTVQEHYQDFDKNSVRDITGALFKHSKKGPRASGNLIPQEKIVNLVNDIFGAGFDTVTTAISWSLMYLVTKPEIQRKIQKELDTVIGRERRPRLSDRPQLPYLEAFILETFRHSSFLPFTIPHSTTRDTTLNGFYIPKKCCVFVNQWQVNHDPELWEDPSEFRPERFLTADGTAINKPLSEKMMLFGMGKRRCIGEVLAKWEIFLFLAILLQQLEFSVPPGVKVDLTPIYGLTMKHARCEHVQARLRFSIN

CYP1A2 [11] = biological target: T3, CYP1A2; experiment: Inhibition of rCYP1A2 in microsomes from CYP450-overexpressing HEK293 cells; assay type: in vitro ADME; conditions: probe phenacetin; for Ki: rCYP1A2 microsomes
CYP1A2 [12] = biological target: T3, CYP1A2; experiment: Inhibition of CYP1A2 probe; assay type: in vitro ADME; conditions: for IC50: probe phenacetin; for Ki: probe phenacetin (CYP1A2)
[13] = IC50,u, HLM, corrected for fu,inc
[14] = Ki,u, HLM, corrected for fu,inc
[15] = IC50,u, rCYP2B6 microsomes, corrected for fu,inc
[16] = Ki,u, rCYP2B6 microsomes, corrected for fu,inc
[17] = IC50 (+), 30-min preincubation with NADPH
[18] = IC50 (−), 30-min preincubation without NADPH
[19] = IC50,u, rCYP2E1 microsomes, corrected for fu,inc
[20] = Ki,u, rCYP2E1 microsomes, corrected for fu,inc

Chain of CYP2C9 (P11712 whole entry): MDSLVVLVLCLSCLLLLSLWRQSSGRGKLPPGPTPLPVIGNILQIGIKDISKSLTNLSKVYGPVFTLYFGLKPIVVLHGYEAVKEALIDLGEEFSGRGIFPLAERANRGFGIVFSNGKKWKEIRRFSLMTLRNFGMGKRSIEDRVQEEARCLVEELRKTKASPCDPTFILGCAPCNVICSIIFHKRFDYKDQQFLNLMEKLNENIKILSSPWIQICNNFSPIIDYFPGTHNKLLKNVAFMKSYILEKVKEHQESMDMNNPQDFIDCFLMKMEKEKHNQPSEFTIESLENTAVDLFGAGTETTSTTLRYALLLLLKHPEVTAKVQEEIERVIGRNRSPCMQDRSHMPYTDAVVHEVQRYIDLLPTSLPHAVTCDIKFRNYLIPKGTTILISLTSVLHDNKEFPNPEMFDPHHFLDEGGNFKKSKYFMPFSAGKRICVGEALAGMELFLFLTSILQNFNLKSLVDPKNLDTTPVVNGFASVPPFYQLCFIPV

SMILES | inhibition of activity against S-warfarin (CYP2C9) | IC50 (CYP2B6 [1]; IC50, HLM) [nM] | IC50 (CYP2B6 [1]; [13]) [nM] | Ki (CYP2B6 [1]; Ki, HLM) [nM] | Ki (CYP2B6 [1]; [14]) [nM] | IC50 (CYP2B6 [2]; IC50, rCYP2B6 microsomes) [nM] | IC50 (CYP2B6 [2]; [15]) [nM] | Ki (CYP2B6 [2]; Ki, rCYP2B6 microsomes) [nM] | Ki (CYP2B6 [2]; [16]) [nM] | inhibition of activity against efavirenz (CYP2B6 [2]; rCYP2B6 microsomes) | fraction unbound at 30 min, 50 µM [3] | inhibition of activity against bufuralol (CYP2D6) | IC50 (CYP2B6 [4]; [17]) [nM] | IC50 (CYP2B6 [4]; [18]) [nM] | IC50 (CYP2E1 [5]; IC50, HLM) [nM] | IC50 (CYP2E1 [5]; [13]) [nM] | Ki (CYP2E1 [5]; Ki, HLM) [nM] | Ki (CYP2E1 [5]; [14]) [nM] | IC50 (CYP2E1 [7]; [17]) [nM] | IC50 (CYP2E1 [7]; [18]) [nM] | other results
CCCCCc1cc(O)c2c(c1)OC(C)(C)c1ccc(C)cc1-2 [CBN, cannabinol] | Strong inhibition | 1700 ± 590 | 880 ± 310 | 1700 ± 420 | 880 ± 220 | 2100 ± 870 | 630 ± 260 | 620 ± 190 | 190 ± 57 | Strong inhibition | 0.052 ± 0.081 | no inhibition was observed | 2000 ± 700 | 2100 ± 830 | 1100 ± 720 | 570 ± 370 | 330 ± 91 | 170 ± 47 | 730 ± 210 | 870 ± 150 | decrease in activity (CYP2C9; CYP2C9, 10 µM cannabinoid): 55%; decrease in activity (CYP2B6 [2]; CYP2B6, 10 µM cannabinoid): 75%; fraction unbound at 30 min, 50 µM [6]: 0.03 ± 0.052; decrease in activity (CYP2E1 [8]; 1 µM cannabinoid): 77%; decrease in activity (CYP2E1 [8]; 10 µM cannabinoid): 80%; IC50 (CYP2E1 [8]; IC50, rCYP2E1 microsomes): 920 ± 100 nM; IC50 (CYP2E1 [8]; [19]): 280 ± 30 nM; Ki (CYP2E1 [8]; Ki, rCYP2E1 microsomes): 210 ± 97 nM; Ki (CYP2E1 [8]; [20]): 63 ± 29 nM
C=C(C)[C@@H]1CCC(C)=C[C@H]1c1c(O)cc(CCCCC)cc1O [CBD, cannabidiol] | Strong inhibition | 2700 ± 2400 | 260 ± 240 | 2200 ± 530 | 220 ± 52 | 2100 ± 610 | 130 ± 38 | 1100 ± 240 | 68 ± 15 | Strong inhibition | 0.098 ± 0.023 | Strong inhibition | 1300 ± 450 | 1900 ± 660 | 1400 ± 250 | 140 ± 25 | 590 ± 230 | 58 ± 23 | 900 ± 400 | 1100 ± 660 | Cmax ([9]; 20-mg inhaled dose of CBD): 10.3 nM; Cmax ([9]; oral dose of 800 mg of CBD): 703 nM; IC50 (CYP1A2 [10]; [17]): 1800 ± 310 nM; IC50 (CYP1A2 [10]; [18]): 2100 ± 250 nM; IC50 (CYP1A2 [11]; IC50, rCYP1A2 microsomes): 2100 ± 930 nM; Ki (CYP1A2 [11]; Ki): 1900 ± 1200 nM; Ki (CYP1A2 [11]; Ki,u, corrected for fu,inc): 120 ± 74 nM; IC50 (CYP1A2 [12]; IC50, HLM): 6.8 ± 1.5 µM; IC50 (CYP1A2 [12]; [13]): 0.67 ± 0.15 µM; Ki (CYP1A2 [12]; Ki, HLM): 2100 ± 1100 nM; Ki (CYP1A2 [12]; [14]): 210 ± 110 nM; IC50 (CYP2E1 [8]; IC50, rCYP2E1 microsomes): 590 ± 130 nM; IC50 (CYP2E1 [8]; [19]): 37 ± 8.1 nM; Ki (CYP2E1 [8]; Ki, rCYP2E1 microsomes): 340 ± 98 nM; Ki (CYP2E1 [8]; [20]): 21 ± 6.1 nM
